The target of one experiment is T1, ERK2 enzyme (Homo sapiens, UniProt P28482).
T1 construct: purchased Life Technologies
In words: Inhibition assay of ERK (Z'-LYTE kinase assay, Ser/Thr 3 peptide, 100 μM ATP). It counts as biochemical. The following applies: in vitro. Here is the method: Example 9: Inhibition Assays of ERK. The inhibition of ERK activity by the compounds disclosed herein was determined using the Z′-LYTE kinase assay kit (Life Technologies) with a Ser/Thr 3 peptide substrate (Life Technologies) according to manufacturer's instructions. […] The IC50 values for the compounds were determined with 3-fold serial dilutions in duplicate. The compounds were first diluted in 1:3 dilutions in 100% DMSO at 100× the desired concentration, and then further diluted (1:25) in 20 mM HEPES buffer (Invitrogen) to make 4× solutions prior to adding to the enzyme solution. The final DMSO concentration in the assay was 1%. Final reaction volume was […] in 384-well plates. Kinase reactions were conducted for 1 hour followed by the assay development reaction (1 hour) in a 384 well plate format (20 μL/well).

Experiment [1] has as its system LU0009 primary human NSCLC tissues. In words: Patient-derived xenograft model of squamous NSCLC: LU0009. The conditions noted are these: Q2D or 2QW schedules. It is filed as in vivo, human (in BALB/C nude mice). As to the method: (§1) Example 1: Efficacy studies in patient-derived xenograft models of squamous NSCLC. Tumor fragments (2-4 mm in diameter) from stock mice inoculated with LU1868 or LU0009 primary human NSCLC tissues were inoculated subcutaneously into BALB/C nude mice. The mice were stratified into groups when the average tumor size reached about 200 mm^3. […] Tumor volumes were measured twice weekly in two dimensions using a caliper, with volume expressed in mm^3 (mean+/−SEM) using the formula […], where a and b are the long and short diameters of the tumor, respectively.
(§2) Responses were classified as “tumor stasis” if tumors grew ≤10% during the dosing period. Many SCC patient-derived xenograft models retain comorbid properties of the original tumors from which they were derived, such as induction of cachexia and spontaneous ulceration, that negatively impact the physiology of the host animal and reduce tolerability to exogenous agents, such as therapeutic drugs. […] Dosing holidays were necessary during periods when the mouse had lost ≥10% of body weight until the weight of the mouse returned to baseline. […] Where TGI was 70-85% and no doses were missed, activity was classified as “borderline”, and any TGI levels below 70% were classified as “resistant”.
On the technique in general: A xenograft is tissue or cells of one species grown in another, often human tumour cells in immunodeficient mice.

Experiment [2] concerns HN1391 primary human HNSCC tissues. In words: Patient-derived xenograft model of HNSCC: HN1391. It is filed as in vivo, human (in BALB/C nude mice). As to the method: Example 5: Efficacy studies in patient-derived xenograft modes of HNSCC. The general procedure outline in Example 1 was followed. […] Dosing was discontinued to observe tumor regrowth, then restarted on the same dosing schedule on day 56. […] This activity was maintained for 25 days on treatment at either 120 mg/kg Q2D or 300 mg/kg QW. When dosing was discontinued, tumor stasis was maintained for 10-20 days, but eventually all of the tumors regrew. Regrowth was allowed to proceed for 2-3 weeks, until some individual tumors exceeded 1600 mm^3, then therapy was restarted. Strikingly, all of the retreated tumors regressed, decreasing in size by 27-66% in the subsequent 35 days.

For experiment [3], the system named is ES0215 primary human ESCC tissues. In words: Patient-derived xenograft model of ESCC: ES0215. It counts as in vivo, human (in BALB/C nude mice). The following applies: Q2D or QW schedules. Here is the method: (§3) Example 2: Efficacy studies in patient-derived xenograft models of ESCC. The general procedure outline in Example 1 was followed. […] Gene copy number and gene expression were assessed as described in Example 1.

Experiment [4] concerns HN0635 primary human HNSCC tissues. In words: Patient-derived xenograft model of HNSCC: HN0635. It counts as in vivo, human (in BALB/C nude mice). The following applies: Q2D or QW schedules. As to the method:
(§4) Example 3: Efficacy studies in patient-derived xenograft models of HNSCC. The general procedure outline in Example 1 was followed. […] Gene copy number and gene expression were assessed as described in Example 1.

For experiment [5], the system named is HNSCC patient-derived xenograft models exhibiting CCND1 amplification. The experiment can be described thus: Efficacy studies in patient-derived xenograft models of HNSCC (Example 14). It counts as in vivo, human (in BALB/C nude mice). The following applies: 300-350 mg/kg QW PO. The source says:
Example 14: Efficacy studies in patient-derived xenograft models of HNSCC. The general procedure outline in Example 1 was followed.

The subject of experiment [6] is HN2221 primary human HNSCC tissues. The experiment can be described thus: Patient-derived xenograft model of HNSCC: HN2221. It counts as in vivo, human (in BALB/C nude mice). The conditions noted are these: weekly dosing. As to the method: as §4
In experiment [7] the test system is ES0191 primary human ESCC tissues. In words: Patient-derived xenograft model of ESCC: ES0191. The conditions noted are these: weekly schedule. It counts as in vivo, human (in BALB/C nude mice). Here is the method:
as §3

In experiment [8] the test system is LU1868 primary human NSCLC tissues. The experiment can be described thus: Patient-derived xenograft model of squamous NSCLC: LU1868. It is filed as in vivo, human (in BALB/C nude mice). The following applies: daily and Q2D dosing schedules. As to the method:
as §1, §2

Experiment [9] has as its system HN3067 primary human HNSCC tissues. The experiment can be described thus: Patient-derived xenograft model of HNSCC: HN3067. It counts as in vivo, human (in BALB/C nude mice). The source says: Example 6: Efficacy studies in patient-derived xenograft models of HNSCC. The general procedure outline in Example 1 was followed. […] Dosing was discontinued to observe tumor regrowth.

The test system of experiment [10] is A375 V600E amp (BRAF V600E amp). The experiment can be described thus: Models of clinical B-Raf and MEK inhibitor resistance, CellTiter-Glo 72 hours: A375 V600E amp. The conditions noted are these: Homo sapiens, A-375. It counts as cell-based. Here is the method:
(§5) Human melanoma cell lines were obtained from ATCC or DSMZ (e.g., A375, MM383 BRAF V600E and MM127 NRAS Q61R). A375 cells were engineered to overexpress LacZ, BRAF V600E (BRAF V600E amp), or the NRAS mutant NRAS Q61R. The cell lines were grown to confluency, washed with Tumor Cell Media (DMEM+10% FBS or IMDM+20% FBS), and plated in 90 μL Tumor Cell Media at 5,000-10,000 cells/well. […] Plates were incubated for 72 hours at 37° C. and 5% CO2. A volume of 100 μL of CellTiter-Glo® reagent was added to each well and plates were mixed for 2 minutes on an orbital shaker. The plates were allowed to stand at room temperature for 20 minutes before measuring the luminescent signal of each well.
In general terms: In ATP-based viability assays light output follows the ATP content of the culture.

Another experiment has as its system A375 NRAS Q61R. In words: Models of clinical B-Raf and MEK inhibitor resistance, CellTiter-Glo 72 hours: A375 NRAS Q61R. It is filed as cell-based. The conditions noted are these: Homo sapiens, A-375. As to the method:
as §5, with “Example 11: Efficacy studies in models of clinical B-Raf and MEK inhibitor resistance. Human” for “Human”

A further experiment deals with A375 LacZ. The experiment can be described thus: Models of clinical B-Raf and MEK inhibitor resistance, CellTiter-Glo 72 hours: A375 LacZ. It is filed as cell-based. The conditions noted are these: Homo sapiens, A-375. As to the method:
as §5, with “Example 11: Efficacy studies in models of clinical B-Raf and MEK inhibitor resistance. Human” for “Human”

A value given as a limit tells only on which side of the number the result lay.

T1 sequence (P28482 whole entry): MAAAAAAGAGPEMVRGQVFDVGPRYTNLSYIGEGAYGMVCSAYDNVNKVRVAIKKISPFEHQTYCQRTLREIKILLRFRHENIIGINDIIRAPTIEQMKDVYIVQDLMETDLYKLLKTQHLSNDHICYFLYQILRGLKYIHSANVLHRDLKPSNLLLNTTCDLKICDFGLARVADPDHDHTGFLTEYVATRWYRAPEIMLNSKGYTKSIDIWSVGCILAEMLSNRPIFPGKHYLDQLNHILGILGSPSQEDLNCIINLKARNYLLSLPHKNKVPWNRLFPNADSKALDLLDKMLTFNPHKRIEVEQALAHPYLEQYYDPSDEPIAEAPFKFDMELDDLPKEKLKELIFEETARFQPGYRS

The term IC50 denotes the point on the concentration scale where inhibition reaches its midpoint. The low end stands for greater potency in that assay, the high end for weaker potency in that assay. For `Cc1ccc(-c2n[nH]c3cc4c(cc23)CN([C@@H]2CCCN(Cc3ccc(F)cc3F)C2)C(=O)N4)cn1` [Compound 284], the concentration for half-maximal inhibition (IC50) against ERK2 enzyme is below 500 nM.

As for `Cn1cc(-c2n[nH]c3cc4c(cc23)CN([C@@H]2CCCN(Cc3ccccc3)C2)C(=O)N4)cn1` [Compound 285], at ERK2 enzyme, the half-maximal inhibitory concentration (IC50) was below 500 nM. The same measure, in the same setting: to `Cc1cc(-c2n[nH]c3cc4[nH]c(=O)c([C@H](C)c5ccc(F)cc5)cc4cc23)ccn1` [Compound 288] belongs below 500 nM. Still for that read-out and setting: next, `Cc1cc(-c2n[nH]c3cc4c(cc23)CN([C@@H]2CCCN(Cc3sccc3F)C2)C(=O)N4)ccn1` [Compound 291]: below 500 nM. On ERK2 enzyme, `Cc1ncc(-c2n[nH]c3cc4c(cc23)CN([C@@H]2CCCN(Cc3ccccc3)C2)C(=O)N4)cn1` [Compound 292] gave an IC50 below 500 nM. The same measure, in the same setting: to `Cc1ncc(-c2n[nH]c3cc4c(cc23)CN([C@@H]2CCCN(Cc3ccc(F)cc3F)C2)C(=O)N4)cn1` [Compound 293] belongs below 500 nM. The same measure, in the same setting: next, `Cc1cc(-c2n[nH]c3cc4c(cc23)CN([C@@H]2CN(CC(F)(F)F)C[C@H]2c2ccccc2)C(=O)N4)ccn1` [Compound 304]: below 500 nM; `CC(c1ccccc1)c1cc2cc3c(-c4ccc(N5CCN(C)CC5)nc4)n[nH]c3cc2[nH]c1=O` (centres unmarked) [Compound 316]: below 500 nM; `CC(c1ccccc1)c1cc2cc3c(-c4ccnc(N5CCN(C)CC5)c4)n[nH]c3cc2[nH]c1=O` (centres unmarked) [Compound 318]: below 500 nM. The molecule `CC(c1ccccc1)c1cc2cc3c(-c4ccnc(N5CCOCC5)c4)n[nH]c3cc2[nH]c1=O` (centres unmarked) [Compound 325] came in with a half-inhibitory concentration (IC50) against ERK2 enzyme below 500 nM.

For the molecule `CC(c1ccccc1)c1cc2cc3c(-c4ccncc4)n[nH]c3cc2[nH]c1=O` (centres unmarked) [Compound 326], the IC50 against ERK2 enzyme is below 500 nM.

The molecule `Cc1cc(-c2n[nH]c3cc4[nH]c(=O)c(C5CCCN(Cc6ccccc6)C5)cc4cc23)ccn1` (centres unmarked) [Compound 332] gave an IC50 at ERK2 enzyme below 500 nM.

On ERK2 enzyme, `CC(c1ccccc1)c1cc2cc3c(-c4cnn(C)c4)n[nH]c3cc2[nH]c1=O` (centres unmarked) [Compound 333] had an IC50 below 500 nM. At ERK2 enzyme, `CC(c1ccccc1)c1cc2cc3c(NC4CCOCC4)n[nH]c3cc2[nH]c1=O` (centres unmarked) [Compound 338] gave an IC50 below 500 nM.

On ERK2 enzyme, `Cc1cc(-c2n[nH]c3cc4c(cc23)CN([C@@H]2CN(CC(F)(F)F)C[C@H]2c2ccccc2)C(=O)N4)cc(C)n1` [Compound 339] returned an IC50 below 500 nM. On the same count and under the same terms, next, `C[C@H](c1ccccc1)c1cc2cc3c(NC4CCOCC4)n[nH]c3cc2[nH]c1=O` [Compound 357]: below 500 nM; `COc1ncc(-c2n[nH]c3cc4[nH]c(=O)c(C5CCCN(Cc6ccccc6)C5)cc4cc23)cn1` (centres unmarked) [Compound 364]: below 500 nM. For the molecule `O=C1Nc2cc3[nH]nc(-c4ccncc4)c3cc2CN1Cc1ccccc1` [KO-947], the “Tumor response (tumor volume)” value was “only modest inhibition of tumor growth” in [1]; “only modest inhibition of tumor growth” in experiment [3]; “only modest inhibition of tumor growth” in experiment [6]; “tumor regression was initially seen on a weekly schedule, with some regrowth late in the experiment resulting ultimately in tumor stasis” in [7]; “tumor regression” in [8]; “robust tumor regression” in [9] (all six animals, 120 mg/kg Q2D or 300 mg/kg QW, 40 days). Further, in [2] (120 mg/kg Q2D or 300 mg/kg QW, maintained for 25 days), the “Tumor response when treatment was initiated” value was “regression and tumor stasis”. Further, in experiment [2] (after 25 days on treatment), the “Time tumor stasis was maintained after dosing was discontinued” value was in the range of 10 to 20 days. Also, the “Decrease in size of retreated tumors” value in [2] (therapy restarted on day 56, subsequent 35 days) is on record as 27-66%. Moreover, the “Animals with tumor regression” value in [4] is reported as 5 of 6. Further, in [5], the “Models responsive to treatment” value was “Four out of six”. Further, the “Animals with no evidence of remaining viable tumor” value in experiment [9] (sixty days after dosing was discontinued) is 4 of 6. On to `CC(=O)Nc1cccc(-n2c(=O)n(C3CC3)c(=O)c3c(Nc4ccc(I)cc4F)n(C)c(=O)c(C)c32)c1` [Trametinib], for which the 50% inhibitory concentration (IC50) in [10] worked out at 300 nM; with A375 NRAS Q61R, 77 nM; in the experiment with A375 LacZ, 7 nM.

Consider `CCCS(=O)(=O)Nc1ccc(F)c(C(=O)c2c[nH]c3ncc(-c4ccc(Cl)cc4)cc23)c1F` [Vemurafenib], for which the results for the IC50 (in experiment [10]; in the experiment on A375 NRAS Q61R; in the experiment with A375 LacZ) were above 10000 nM, above 10000 nM and 4200 nM, respectively.

For the origin of these results see patent publication US20190192517A1, “TREATMENT OF SQUAMOUS CELL CARCINOMAS WITH INHIBITORS OF ERK” (Kura Oncology, Inc., priority 2016, published 2019).
